Usually Kd stands for a measure of binding affinity in units of concentration. Broadly, the pKd is −log10 of the Kd, conventionally taken in molar units.

The source of these data is ChEMBL document CHEMBL3991601, “The target landscape of clinical kinase drugs” (Science, 2017).

pKd: −log10 of the molar value. Activity calls are given as the source filed them.

Assay [1] concerns the target T1, Very long-chain specific acyl-CoA dehydrogenase, mitochondrial (Homo sapiens, UniProt P49748).
T1 sequence (P49748 whole entry): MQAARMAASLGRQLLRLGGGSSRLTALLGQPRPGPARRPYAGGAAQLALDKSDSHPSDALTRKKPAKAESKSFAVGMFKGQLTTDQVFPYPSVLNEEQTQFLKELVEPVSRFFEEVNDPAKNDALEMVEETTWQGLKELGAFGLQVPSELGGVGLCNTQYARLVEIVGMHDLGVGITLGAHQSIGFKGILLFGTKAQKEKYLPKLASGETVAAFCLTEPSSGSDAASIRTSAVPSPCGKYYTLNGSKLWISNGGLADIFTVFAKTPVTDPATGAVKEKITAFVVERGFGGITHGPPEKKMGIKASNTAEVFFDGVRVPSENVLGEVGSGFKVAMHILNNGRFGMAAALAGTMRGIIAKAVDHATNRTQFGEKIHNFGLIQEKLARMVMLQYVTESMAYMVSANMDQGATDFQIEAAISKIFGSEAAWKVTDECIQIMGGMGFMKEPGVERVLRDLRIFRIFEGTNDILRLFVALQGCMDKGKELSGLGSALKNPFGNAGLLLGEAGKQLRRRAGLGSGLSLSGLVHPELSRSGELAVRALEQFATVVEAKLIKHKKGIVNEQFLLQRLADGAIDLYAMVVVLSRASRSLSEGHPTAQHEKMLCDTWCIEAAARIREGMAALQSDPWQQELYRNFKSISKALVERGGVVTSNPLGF

The target in the next assay is LIM domain kinase 1 (Homo sapiens, UniProt P53667).
Chain of LIM domain kinase 1 (P53667 whole entry, the tested form may be a part): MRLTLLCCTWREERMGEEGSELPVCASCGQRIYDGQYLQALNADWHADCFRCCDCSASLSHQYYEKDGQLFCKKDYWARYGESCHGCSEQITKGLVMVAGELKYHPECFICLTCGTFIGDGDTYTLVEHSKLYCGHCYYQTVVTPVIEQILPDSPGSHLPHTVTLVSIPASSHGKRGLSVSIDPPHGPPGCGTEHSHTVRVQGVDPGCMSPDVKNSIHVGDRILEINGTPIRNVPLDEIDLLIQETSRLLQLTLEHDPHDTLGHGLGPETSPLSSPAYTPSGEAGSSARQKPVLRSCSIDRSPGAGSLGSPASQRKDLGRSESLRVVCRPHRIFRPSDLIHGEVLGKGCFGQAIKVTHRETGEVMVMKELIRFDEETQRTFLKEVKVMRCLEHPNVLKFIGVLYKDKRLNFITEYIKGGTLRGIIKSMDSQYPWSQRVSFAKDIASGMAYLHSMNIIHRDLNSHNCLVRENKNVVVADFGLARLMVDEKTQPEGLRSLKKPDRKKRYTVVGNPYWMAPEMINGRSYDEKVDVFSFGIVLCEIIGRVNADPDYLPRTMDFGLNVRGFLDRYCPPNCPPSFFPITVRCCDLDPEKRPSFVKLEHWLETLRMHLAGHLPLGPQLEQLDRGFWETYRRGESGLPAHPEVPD
The target in assay [2] is T2, Serine/threonine-protein kinase NLK (Homo sapiens, UniProt Q9UBE8).
T2 sequence (Q9UBE8 whole entry): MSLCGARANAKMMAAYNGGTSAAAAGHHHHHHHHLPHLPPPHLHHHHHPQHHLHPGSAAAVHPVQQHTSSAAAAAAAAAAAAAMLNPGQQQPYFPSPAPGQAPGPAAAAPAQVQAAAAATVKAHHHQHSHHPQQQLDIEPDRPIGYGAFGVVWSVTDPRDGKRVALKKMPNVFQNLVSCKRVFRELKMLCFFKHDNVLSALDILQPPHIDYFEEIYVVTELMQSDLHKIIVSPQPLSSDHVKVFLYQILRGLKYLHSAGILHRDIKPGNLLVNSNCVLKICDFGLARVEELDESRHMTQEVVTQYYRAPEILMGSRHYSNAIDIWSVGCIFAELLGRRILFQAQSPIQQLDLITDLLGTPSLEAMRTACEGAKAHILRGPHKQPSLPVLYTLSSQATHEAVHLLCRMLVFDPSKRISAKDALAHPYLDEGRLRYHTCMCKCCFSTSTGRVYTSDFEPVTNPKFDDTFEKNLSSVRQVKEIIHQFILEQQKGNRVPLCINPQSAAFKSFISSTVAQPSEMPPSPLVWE

Assay [3] concerns the target Ribosomal protein S6 kinase alpha-3 (Homo sapiens, UniProt P51812).
Assay [4] has as its target T3, Serine/threonine-protein kinase TAO2 (Homo sapiens, UniProt Q9UL54).
T3 sequence (Q9UL54 whole entry): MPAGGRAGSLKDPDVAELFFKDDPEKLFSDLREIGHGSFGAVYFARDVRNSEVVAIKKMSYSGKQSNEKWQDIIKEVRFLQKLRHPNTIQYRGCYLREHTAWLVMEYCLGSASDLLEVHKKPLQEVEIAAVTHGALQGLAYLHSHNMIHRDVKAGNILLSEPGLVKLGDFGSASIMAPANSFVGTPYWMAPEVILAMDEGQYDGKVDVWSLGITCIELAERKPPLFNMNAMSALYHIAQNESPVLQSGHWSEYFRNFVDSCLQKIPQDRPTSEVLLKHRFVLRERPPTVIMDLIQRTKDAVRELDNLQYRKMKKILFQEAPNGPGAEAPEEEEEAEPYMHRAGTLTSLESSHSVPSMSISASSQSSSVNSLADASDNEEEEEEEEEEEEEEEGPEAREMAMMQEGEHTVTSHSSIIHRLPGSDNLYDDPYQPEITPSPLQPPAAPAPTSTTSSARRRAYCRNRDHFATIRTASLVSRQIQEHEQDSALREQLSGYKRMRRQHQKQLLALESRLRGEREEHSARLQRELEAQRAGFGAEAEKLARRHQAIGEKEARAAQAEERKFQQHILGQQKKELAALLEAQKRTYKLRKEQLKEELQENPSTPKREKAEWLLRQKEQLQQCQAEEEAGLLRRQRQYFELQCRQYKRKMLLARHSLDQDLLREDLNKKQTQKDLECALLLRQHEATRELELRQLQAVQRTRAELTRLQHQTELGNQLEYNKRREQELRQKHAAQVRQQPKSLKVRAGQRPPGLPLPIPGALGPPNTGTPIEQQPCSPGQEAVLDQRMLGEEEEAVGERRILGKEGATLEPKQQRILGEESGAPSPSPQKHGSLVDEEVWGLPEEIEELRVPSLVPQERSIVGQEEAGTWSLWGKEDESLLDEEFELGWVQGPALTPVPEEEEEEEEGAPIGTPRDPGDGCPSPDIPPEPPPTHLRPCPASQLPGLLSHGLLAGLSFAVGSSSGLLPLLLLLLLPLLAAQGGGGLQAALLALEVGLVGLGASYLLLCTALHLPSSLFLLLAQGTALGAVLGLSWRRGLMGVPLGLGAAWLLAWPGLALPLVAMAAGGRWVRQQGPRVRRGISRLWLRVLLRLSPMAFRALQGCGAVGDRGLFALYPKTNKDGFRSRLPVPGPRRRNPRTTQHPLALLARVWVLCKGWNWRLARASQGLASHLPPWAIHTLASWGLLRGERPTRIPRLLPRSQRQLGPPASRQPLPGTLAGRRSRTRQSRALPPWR

Assay [5] concerns the target Elongation factor Tu, mitochondrial (Homo sapiens, UniProt P49411).
Also: in the data inactive means no Kd found up to 30 µM.

Chain of Ribosomal protein S6 kinase alpha-3 (P51812 whole entry): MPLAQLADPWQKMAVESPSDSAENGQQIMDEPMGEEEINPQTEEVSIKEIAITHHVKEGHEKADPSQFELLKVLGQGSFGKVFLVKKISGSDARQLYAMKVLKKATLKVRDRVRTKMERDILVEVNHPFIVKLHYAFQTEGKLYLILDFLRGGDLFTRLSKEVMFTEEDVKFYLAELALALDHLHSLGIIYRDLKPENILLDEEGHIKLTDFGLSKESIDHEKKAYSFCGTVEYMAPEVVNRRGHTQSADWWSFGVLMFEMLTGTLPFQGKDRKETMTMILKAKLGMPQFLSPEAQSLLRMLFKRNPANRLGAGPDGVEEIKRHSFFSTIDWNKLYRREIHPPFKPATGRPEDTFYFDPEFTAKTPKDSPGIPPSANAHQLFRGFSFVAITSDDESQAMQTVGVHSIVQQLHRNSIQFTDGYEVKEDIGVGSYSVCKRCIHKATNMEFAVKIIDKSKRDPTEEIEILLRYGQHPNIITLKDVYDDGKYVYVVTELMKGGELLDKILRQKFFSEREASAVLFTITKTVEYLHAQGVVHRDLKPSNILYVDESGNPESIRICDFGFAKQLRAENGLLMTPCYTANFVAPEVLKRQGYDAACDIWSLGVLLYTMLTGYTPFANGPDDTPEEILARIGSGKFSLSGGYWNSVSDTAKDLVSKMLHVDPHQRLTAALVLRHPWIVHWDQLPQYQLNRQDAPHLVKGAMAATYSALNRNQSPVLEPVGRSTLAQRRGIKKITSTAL

As to `C[C@@H]1COC(Nc2ccc3ncnc(Nc4ccc(OCc5nccs5)c(Cl)c4)c3c2)=N1` [VARLITINIB], the Kd (in assay [1]; at LIM domain kinase 1; in assay [2]; in assay [3]; in assay [4]; in assay [5]) was > 30 µM (inactive) in each case.

Regarding `CCc1cc2c(cc1N1CCC(N3CCOCC3)CC1)C(C)(C)c1[nH]c3cc(C#N)ccc3c1C2=O` [ALECTINIB], the Kd (in assay [1]; on LIM domain kinase 1; in assay [2]; in assay [3]; in assay [4]; in assay [5]) was > 30 µM (inactive) each time.

As for `C#Cc1cccc(Nc2ncnc3cc4c(cc23)OCCOCCOCCO4)c1` [ICOTINIB], the Kd (in assay [1]; on LIM domain kinase 1; in assay [2]; in assay [3]; in assay [4]; in assay [5]) was > 30 µM (inactive) throughout.

For `CC1(COc2ccc3c(c2)ncn3-c2ccc3cccc(N4CCC(N)CC4)c3n2)COC1` [CRENOLANIB], the Kd (in assay [1]; on LIM domain kinase 1; in assay [2]; in assay [3]; in assay [4]; in assay [5]) was > 30 µM (inactive) throughout.

Turning to `Cn1c(=O)c(F)c(Nc2ccc(I)cc2F)c2c(=O)n(C[C@@H](O)CO)cnc21` [TAK-733], the Kd (in assay [1]; at LIM domain kinase 1; in assay [2]; in assay [3]; in assay [4]; in assay [5]) was > 30 µM (inactive) in each case.

On to `COc1cc2ncnc3c2cc1OCCCCCN(C)Cc1ccc(Br)cc1N3` [JNJ-26483327], for which the Kd (in assay [1]; on LIM domain kinase 1; in assay [2]; in assay [3]; in assay [4]; in assay [5]) was > 30 µM (inactive) each time.

Take `CCOc1ccn(-c2ccc(F)cc2)c(=O)c1C(=O)Nc1ccc(Oc2ccnc(N)c2Cl)c(F)c1` [BMS-777607]: the Kd (in assay [1]; at LIM domain kinase 1; in assay [2]; in assay [3]; in assay [4]; in assay [5]) was > 30 µM (inactive) each time.

`FC(F)(F)c1ccc(CNc2ccc(Cc3c[nH]c4ncc(Cl)cc34)cn2)cn1` [PEXIDARTINIB]: the Kd (in assay [1]; at LIM domain kinase 1; in assay [2]; in assay [3]; in assay [4]; in assay [5]) was > 30 µM (inactive) each time.

For `COc1ccc2c(OCc3nnc4ccc(-c5ccccc5)nn34)ccnc2c1` [AMG-208], the Kd (in assay [1]; on LIM domain kinase 1; in assay [2]; in assay [3]; in assay [4]; in assay [5]) was > 30 µM (inactive) in each case.

For `Cc1cc(-c2cc(OC(=O)c3ccccc3)ccc2Cl)cc2nnc(Nc3ccc(OCCN4CCCC4)cc3)nc12` [TG100-801], the Kd (in assay [1]; at LIM domain kinase 1; in assay [2]; in assay [3]; in assay [4]; in assay [5]) was > 30 µM (inactive) each time.

For `O=C(NC[C@H](O)CO)c1ccncc1Nc1ccc(I)cc1F` [PIMASERTIB], the Kd (in assay [1]; at LIM domain kinase 1; in assay [2]; in assay [3]; in assay [4]; in assay [5]) was > 30 µM (inactive) throughout.

As to `CC[C@@](C)(Nc1ccnc(-c2c[nH]c3ncccc23)n1)C(=O)NCC(F)(F)F` [DECERNOTINIB], the Kd (in assay [1]; at LIM domain kinase 1; in assay [2]; in assay [3]; in assay [4]; in assay [5]) was > 30 µM (inactive) throughout.

For the molecule `CC(C)(O)CC(=O)NCCn1ccc2ncnc(Nc3ccc(Oc4cccc(C(F)(F)F)c4)c(Cl)c3)c21` [TAK-285], the Kd (in assay [1]; at LIM domain kinase 1; in assay [3]; in assay [4]; in assay [5]) was > 30 µM (inactive) each time. Moreover, the pKd in assay [2] was 6.09.

For `COc1cc2ncnc(Nc3ccc(O)cc3)c2cc1OC` [WHI-P131], the Kd (in assay [1]; at LIM domain kinase 1; in assay [2]; in assay [3]; in assay [4]; in assay [5]) was > 30 µM (inactive) throughout.

For the molecule `CNC(=O)c1cc(COc2nnc(Nc3ccc(Cl)cc3)c3ccoc23)ccn1` [TELATINIB], the Kd (in assay [1]; at LIM domain kinase 1; in assay [2]; in assay [3]; in assay [4]; in assay [5]) was > 30 µM (inactive) throughout.

For the molecule `COc1cccc(Nc2ncnn3ccc(CN4CC[C@@H](N)[C@H](O)C4)c23)c1` [BMS-690514], the Kd (in assay [1]; on LIM domain kinase 1; in assay [2]; in assay [3]; in assay [4]; in assay [5]) was > 30 µM (inactive) throughout.

For `S=C(NCc1ccc2c(c1)OCO2)N1CCN(c2ncnc3c2oc2ccccc23)CC1` [AMUVATINIB], the Kd (in assay [1]; on LIM domain kinase 1; in assay [2]; in assay [3]; in assay [4]; in assay [5]) was > 30 µM (inactive) each time.
